Test results: patent US8173384B2, “Methods for analyzing or processing a heparin sample” (Massachusetts Institute of Technology, priority 2000, dated 2012)
Like-named read-outs stand apart in the source and are kept apart here.

Assays:
[1] = target: T1, human AT-III (Homo sapiens, UniProt P01008); test: Equilibrium fluorescence titration of AT-III with saccharide; assay type: binding
Method: Equilibrium Fluorescence Titration Experiments. Titrations of human AT-III with either AT-10 decasaccharide or heparin were completed at 25° C. using a Fluorolog 2 machine (Spex Instruments) (Meagher, J. L., Beechem, J. M., Olson, S. T. & Gettins, P. G. (1998) J Biol Chem 273, 23283-9 and Desai, U. R., Petitou, M., Bjork, I. & Olson, S. T. (1998) J Biol Chem 273, 7478-87). […] With the pH 7.4 buffer, sodium chloride was added to a final concentration of 100 mM.
Fluorescence emission spectra were collected from 300-400 nm with a 280 nm excitation wavelength and a 5 s integration time. Briefly, the titration experiments were conducted as follows—aliquots of either decasaccharide or heparin was added to a 1 μm solution of AT-III, the solution was allowed to come to equilibrium for one minute, and an emission spectrum collected. Addition of sequential saccharide aliquots and fluorescence signal was adjusted to account for protein dilution.

[2] = test system: factor Xa (FXa); test: Anti-Xa assay (factor Xa generation inhibition; factor Xa from serum or purified); assay type: biochemical
Method: (§1) Biological Measurements of Decasaccharide Activity. In vitro anticoagulant activity was determined as described previously (Hoppensteadt, D. A., Jeske, W. P., Walenga, J. M., Fu, K., Yang, L. H., Ing, T. S., Herbert, J. M. & Fareed, J. (1999) Thromb Res 96, 115-24 and Dietrich, C. P., Paiva, J. F., Castro, R. A., Chavante, S. F., Jeske, W., Fareed, J., Gorin, P. A., Mendes, A. & Nader, H. B. (1999) Biochim Biophys Acta 1428, 273-83), according to the United States Pharmacopoeia. Thrombin (FIIa) and factor Xa (FXa) generation inhibition assays were completed essentially as described. Briefly, either AT-10 decasaccharide, Enoxaparin LMWH or the synthetic AT-III binding pentasaccharide (Penta 1) used in this study was dissolved in sterile saline at the designated concentrations. To this sample was added an equal volume of fibrinogen deficient plasma diluted 1:8 in 100 mM Tris-HCl (pH 8.5). In a separate sample, the same concentration of heparin oligosaccharide and actin was added in a 1:1 ratio to either Spectrozyme TH or FXa. In this manner, the intrinsic IIa and Xa generation was measured. In addition, to account for inhibition of thrombin and extrinsic generation of FXa, thromboplastin C was diluted 1:6 with either Spectrozyme TH or FXa. For all samples, the optical density was measured at 405 nm and results are expressed as a % inhibition compared to a unsupplemented saline control. […]

[3] = target: T2, Thrombin (FIIa) (Homo sapiens, UniProt P00734); test: Anti-IIa assay (thrombin generation inhibition); assay type: biochemical
T2 construct: purchased Ortho Diagnostic Systems, Inc. (Raritan, N.J.) Fibrindex
Method: as §1

[4] = target: T3, heparinase I (Pedobacter heparinus, UniProt Q05819); test: Exhaustive heparinase I digestion, products by MALDI-MS; assay type: biochemical, Flavobacterium heparinum
T3 construct: made in house
Method: (§2) Digests. Heparinase I digests were completed as described (Venkataraman, G., Shriver, Z., Raman, R. & Sasisekharan, R. (1999) Science 286, 537-42 and Rhomberg, A. J., Ernst, S., Sasisekharan, R. & Biemann, K. (1998) Proc Natl Acad Sci USA 95, 4176-81). Heparinase II or III reactions were completed in essentially the same way at room temperature in 10 μM ovalbumin, 1 μM dextran sulfate, and 10 mM ethylenediamine, pH 7.0. Short digestions were completed with 50 nM enzyme for 10 minutes while exhaustive digests were completed with 200 nM enzyme overnight. Mass spectra were collected using parameters as outlined above (see also Shriver, Z., Raman, R., Venkataraman, G., Drummond, K., Turnbull, J., Toida, T., Linhardt, R., Biemann, K. & Sasisekharan, R. (2000) Proc Natl Acad Sci USA, 2000 Sep. 12; 97(19):10359-64) and calibrated externally by using signals for protonated (RG)19R and its complex with a nitrous acid-derived hexasaccharide of the sequence I2SHNS,6S I2SHNS,6S I2SMan6S
(§3) Enzymatic Action of the Heparinases Towards the AT-III Binding Site: Previously, we investigated the substrate specificity of heparinases I and II towards AT-10 (Rhomberg, A. J., Shriver, Z., Biemann, K. & Sasisekharan, R. (1998) Proc Natl Acad Sci USA 95, 12232-7 and Ernst, S., Rhomberg, A. J., Biemann, K. & Sasisekharan, R. (1998) Proc Natl Acad Sci USA 95, 4182-7). These studies, however, were carried out assuming a published structure (Toida, T., Hileman, R. E., Smith, A. E., Vlahova, P. I. & Linhardt, R. J. (1996) J Biol Chem 271, 32040-7). In light of the newly determined structure of AT-10 described herein (see also Shriver, Z., Raman, R., Venkataraman, G., Drummond, K., Turnbull, J., Toida, T., Linhardt, R., Biemann, K. & Sasisekharan, R. (2000) Proc Natl Acad Sci USA, 2000 Sep. 12; 97(19):10359-64), we reexamined the enzymatic action of heparinases I, II, and III towards oligosaccharides containing a 3-O sulfate that is critical for high affinity AT-III binding. For these studies, we used three oligosaccharides, two pentasaccharides (Penta 1 and Penta 2, FIG. 5) and a hexasaccharide (Hexa 1, FIG. 5). […]
(§4) Compositional Analysis: UFH was subjected to exhaustive depolymerization with an enzyme cocktail made up of Heparinase I, Heparinase II, and Heparinase III. […] The samples were analyzed by CE in reverse polarity with a running buffer of 50 mM tris/phosphate, 10 μM dextran sulfate, pH 2.5. […] Each sample was digested in duplicate and the experiment was repeated twice for each sample, resulting in four readings per sample. All of the 8 resulting peaks were collected, and the purity of the collected samples was checked by re-injecting into CE, and their mass was measured by offline MALDI Mass Spectrometry. […]

[5] = target: T4, heparinase II (Pedobacter heparinus, UniProt C6XZB6); test: Exhaustive heparinase II digestion, products by MALDI-MS; assay type: biochemical, Flavobacterium heparinum
T4 construct: made in house
Method: as §2, §3, §4

[6] = target: T5, heparinase III (Pedobacter heparinus, UniProt Q59289); test: Exhaustive heparinase III digestion, products by MALDI-MS; assay type: biochemical, Flavobacterium heparinum
T5 construct: made in house
Method: as §2, §3, §4

[7] = test system: whole blood; test: HepTest
Method: Whole blood data were also used to determine the anticoagulant activity of AT-10. The assays, activated partial thromboplastin time (APTT) and prothrombin time (PT) was conducted in a manner similar to what has been previously reported (Dietrich, C. P., Paiva, J. F., Castro, R. A., Chavante, S. F., Jeske, W., Fareed, J., Gorin, P. A., Mendes, A. & Nader, H. B. (1999) Biochim Biophys Acta 1428, 273-83). APTT reagent was obtained from Organon Teknika (Durham, N.C.) and HepTest Reagent was obtained from Haemachem (St. Louis, Mo.).

[8] = target: T1, human AT-III; details: Desai et al. 1998; cited from earlier work

T5 sequence (Q59289 25-659): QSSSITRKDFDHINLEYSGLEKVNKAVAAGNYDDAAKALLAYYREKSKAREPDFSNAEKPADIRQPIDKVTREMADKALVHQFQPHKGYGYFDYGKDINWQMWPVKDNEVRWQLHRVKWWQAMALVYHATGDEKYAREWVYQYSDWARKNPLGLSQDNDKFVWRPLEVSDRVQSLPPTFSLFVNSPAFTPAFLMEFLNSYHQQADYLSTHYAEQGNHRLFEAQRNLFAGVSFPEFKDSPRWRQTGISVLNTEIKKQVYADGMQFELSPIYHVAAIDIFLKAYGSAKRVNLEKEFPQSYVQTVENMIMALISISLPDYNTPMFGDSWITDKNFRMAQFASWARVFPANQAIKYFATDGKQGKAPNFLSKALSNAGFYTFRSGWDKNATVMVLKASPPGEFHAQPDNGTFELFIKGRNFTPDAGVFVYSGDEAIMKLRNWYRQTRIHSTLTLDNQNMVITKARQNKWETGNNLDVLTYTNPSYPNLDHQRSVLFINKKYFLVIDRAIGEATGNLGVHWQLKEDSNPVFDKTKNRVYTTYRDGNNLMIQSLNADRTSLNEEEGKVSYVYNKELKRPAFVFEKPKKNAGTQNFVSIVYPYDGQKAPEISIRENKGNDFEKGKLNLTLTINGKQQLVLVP
T3 sequence (Q05819 22-384): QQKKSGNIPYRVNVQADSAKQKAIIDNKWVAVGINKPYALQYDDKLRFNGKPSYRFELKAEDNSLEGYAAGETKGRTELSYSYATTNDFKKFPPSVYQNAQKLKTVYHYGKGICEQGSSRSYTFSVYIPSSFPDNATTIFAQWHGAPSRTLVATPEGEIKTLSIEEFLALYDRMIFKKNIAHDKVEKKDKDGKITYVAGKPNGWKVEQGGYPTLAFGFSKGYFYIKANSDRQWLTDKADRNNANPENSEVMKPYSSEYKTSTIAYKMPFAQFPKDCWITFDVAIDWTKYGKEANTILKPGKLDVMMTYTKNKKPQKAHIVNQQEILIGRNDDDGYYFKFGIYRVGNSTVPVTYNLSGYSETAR
T4 sequence (C6XZB6 26-772): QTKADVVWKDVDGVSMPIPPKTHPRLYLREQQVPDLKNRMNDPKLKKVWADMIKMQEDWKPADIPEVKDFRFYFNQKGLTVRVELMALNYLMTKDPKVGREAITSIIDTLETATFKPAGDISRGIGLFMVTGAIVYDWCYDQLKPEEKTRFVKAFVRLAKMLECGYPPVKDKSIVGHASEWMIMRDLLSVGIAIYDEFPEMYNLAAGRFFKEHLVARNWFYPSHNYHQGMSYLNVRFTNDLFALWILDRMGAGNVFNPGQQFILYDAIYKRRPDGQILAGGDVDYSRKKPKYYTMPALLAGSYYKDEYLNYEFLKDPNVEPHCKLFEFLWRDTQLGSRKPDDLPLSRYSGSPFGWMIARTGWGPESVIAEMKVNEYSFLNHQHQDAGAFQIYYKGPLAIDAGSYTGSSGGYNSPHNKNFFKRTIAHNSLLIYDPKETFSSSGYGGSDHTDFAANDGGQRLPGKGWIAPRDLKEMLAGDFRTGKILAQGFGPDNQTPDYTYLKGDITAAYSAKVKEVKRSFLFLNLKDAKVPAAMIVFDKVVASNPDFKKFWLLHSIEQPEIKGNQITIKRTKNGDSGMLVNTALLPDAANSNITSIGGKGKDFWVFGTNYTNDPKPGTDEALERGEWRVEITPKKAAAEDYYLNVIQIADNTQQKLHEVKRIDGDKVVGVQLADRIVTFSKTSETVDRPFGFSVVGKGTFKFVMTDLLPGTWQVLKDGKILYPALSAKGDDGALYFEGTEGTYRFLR

Kd ([1]; pH 6.0 I=0.025, read-out: KD for AT-III) [nM] | Kd ([1]; pH 6.2, read-out: apparent KD for AT-III) [nM] | affinity for AT-III (in words) ([1]; pH 7.4, I=0.15) | Structure (SMILES) | IC50 [2] [nM] | anti-IIa activity (in words) [3] | cleavage by heparinase I [4] | cleavage by heparinase II [5] | cleavage by heparinase III [6] | HepTest activity (in words) [7] | affinity for AT-III, previous studies (in words) [8]
800 | 800 | very little affinity | CC(=O)NC1C(OC2C(C(=O)O)OC(OC3C(COS(=O)(=O)O)OC(O)C(NS(=O)(=O)O)C3OS(=O)(=O)O)C(O)C2O)OC(COS(=O)(=O)O)C(OC2OC(C(=O)O)C(OC3OC(COS(=O)(=O)O)C(OC4OC(C(=O)O)C(OC5OC(COS(=O)(=O)O)C(OC6OC(C(=O)O)C(OC7OC(COS(=O)(=O)O)C(OC8OC(C(=O)O)=CC(O)C8OS(=O)(=O)O)C(O)C7NS(=O)(=O)O)C(O)C6OS(=O)(=O)O)C(O)C5NS(=O)(=O)O)C(O)C4OS(=O)(=O)O)C(O)C3NS(=O)(=O)O)C(O)C2O)C1O [AT-10, ΔU2SHNS,6SI2SHNS,6SI2SHNS,6SIHNAc,6SGHNS,3S,6S] | 280 | neither the decasaccharide nor the pentasaccharide have significant anti-IIa activity |  |  |  |  | 
 |  |  | CC(=O)NC1C(OC2C(C(=O)O)OC(OC3C(COS(=O)(=O)O)OC(O)C(NS(=O)(=O)O)C3OS(=O)(=O)O)C(O)C2O)OC(COS(=O)(=O)O)C(OC2OC(C(=O)O)C(OC3OC(COS(=O)(=O)O)C(OC4OC(C(=O)O)=CC(O)C4OS(=O)(=O)O)C(O)C3NS(=O)(=O)O)C(O)C2O)C1O [Hexa 1, ΔU2SHNS,6SIHNAc,6S, GHNS,3S,6S] |  |  | not cleaved | susceptible | susceptible |  | 
 |  |  | CO[C@H]1O[C@H](COS(=O)(=O)O)[C@@H](O[C@@H]2O[C@@H](C(=O)O)[C@@H](O[C@H]3O[C@H](COS(=O)(=O)O)[C@@H](O[C@@H]4O[C@H](C(=O)O)[C@@H](O[C@H]5O[C@H](COS(=O)(=O)O)[C@@H](O)[C@H](O)[C@H]5NS(=O)(=O)O)[C@H](O)[C@H]4O)[C@H](OS(=O)(=O)O)[C@H]3NS(=O)(=O)O)[C@H](O)[C@H]2OS(=O)(=O)O)[C@H](O)[C@H]1NS(=O)(=O)O [Penta 1, HNS,6SGHNS,3S,6SI2SHNS,6S,OMe] | 39 | neither the decasaccharide nor the pentasaccharide have significant anti-IIa activity | cleave | cleave | not cleavable | significantly higher activity than the AT-10 decasaccharide | affinity similar to that of full length heparin
 |  |  | CO[C@H]1O[C@H](COS(=O)(=O)O)[C@@H](O[C@@H]2O[C@@H](C(=O)O)[C@@H](O[C@H]3O[C@H](COS(=O)(=O)O)[C@@H](O[C@@H]4O[C@H](C(=O)O)[C@@H](O[C@H]5O[C@H](COS(=O)(=O)O)[C@@H](O)[C@H](O)[C@H]5NS(=O)(=O)O)[C@H](O)[C@H]4O)[C@H](O)[C@H]3NS(=O)(=O)O)[C@H](O)[C@H]2OS(=O)(=O)O)[C@H](O)[C@H]1NS(=O)(=O)O [Penta 2, HNS,6SGHNS,6SI2SHNS,6S,OMe] |  |  | efficiently cleave | efficiently cleave | efficiently cleave |  | 
 |  |  | CC(=O)N[C@H]1[C@@H](O[C@H]2[C@H](O)[C@@H](O)[C@H](O[C@H]3[C@H](OS(=O)(=O)O)[C@@H](NS(=O)(=O)O)C(O)O[C@@H]3COS(=O)(=O)O)O[C@@H]2C(=O)O)O[C@H](COS(=O)(=O)O)[C@@H](O[C@@H]2OC(C(=O)O)=C[C@H](O)[C@H]2O)[C@@H]1O (stereo partly drawn) [ΔUHNAC,6SGHNS,3S,6S] |  |  | resistant to further degradation | resistant to further degradation | resistant to further degradation |  | 
